Experimental data as given in the supplement of paper PMC6045584.
± gives the standard deviation of the averaged measurements.

Columns and labels:
[1] = compound: T1, CCCCCCCCCCCCCCCC(=O)Nc1ccn([C@@H]2O[C@H](CO)[C@@H](O)[C@@H]2C#N)c(=O)n1 [SAPACITABINE]; test: area under dose-response curve of surviving fraction (unscaled, Aref=0) (surviving fraction x log10(nM)); higher = more resistant; conditions: exposure time: 5 days; dose range 0.5-1000 nM
Method in brief: (§1)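 Surviving fractions were fitted by 3-parameter logistic regression in the drc R package to give dose-response survival curves. They came from tumour cell lines treated for five days with eight inhibitor concentrations from 0.5 to 1000 nM and read by CellTiter-Glo luminescence against DMSO-only wells. The area under the curve is the unscaled activity area. It was calculated over log10 dose with Aref = 0.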

[2] = compound: T2, CC[C@@H]1C(=O)N(C)c2cnc(Nc3ccc(C(=O)NC4CCN(C)CC4)cc3OC)nc2N1C1CCCC1 [BI-2536]; test: as above; conditions: exposure time: 5 days; dose range 0.5-1000 nM
Method in brief: as §1

[3] = compound: Cn1cc(C2=Nc3cc(NC(=O)C(N)C4CCCCC4)cc4c3C2=CNNC4=O)cn1; test: as above; conditions: exposure time: 5 days; dose range 0.5-1000 nM
Method in brief: as §1

[4] = compound: T3, CN(C)C/C=C/C(=O)Nc1cc2c(Nc3ccc(F)c(Cl)c3)ncnc2cc1O[C@H]1CCOC1 [AFATINIB]; test: as above; conditions: exposure time: 5 days; dose range 0.5-1000 nM
Method in brief: as §1

[5] = compound: T4, C=CC(=O)Nc1cc2c(Nc3ccc(F)c(Cl)c3)ncnc2cc1OCCCN1CCOCC1 [CANERTINIB]; test: as above; conditions: exposure time: 5 days; dose range 0.5-1000 nM
Method in brief: as §1

[6] = compound: T5, Nc1nc2[nH]cnc2c(=S)[nH]1 [TIOGUANINE]; test: as above; conditions: exposure time: 5 days; dose range 0.5-1000 nM
Method in brief: as §1

[7] = compound: T6, CC1(C)CC(=O)c2c(C(F)(F)F)nn(-c3ccc(C(N)=O)c(N[C@H]4CC[C@H](OC(=O)CN)CC4)c3)c2C1 [SNX-5422]; test: as above; conditions: exposure time: 5 days; dose range 0.5-1000 nM
Method in brief: as §1

[8] = compound: T1, SAPACITABINE; test: surviving fraction relative to DMSO-only wells; higher = less growth inhibition; conditions: exposure time: 5 days
Method in brief: (§2)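 After seeding at 250–500 cells per well in 384-well plates and a 24-hour wait, log-phase tumour cell lines were exposed without interruption for five days to inhibitors at 0.5, 1, 5, 10, 50, 100, 500 and 1000 nM. CellTiter-Glo luminescence was recorded after 10 minutes at room temperature. Viability is reported as surviving fraction, the luminescence normalised to the median of DMSO-only wells.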

[9] = compound: T2, BI-2536; test: as above; conditions: exposure time: 5 days
Method in brief: as §2

[10] = compound: Cn1cc(C2=Nc3cc(NC(=O)C(N)C4CCCCC4)cc4c3C2=CNNC4=O)cn1; test: as above; conditions: exposure time: 5 days
Method in brief: as §2

[11] = compound: T3, AFATINIB; test: as above; conditions: exposure time: 5 days
Method in brief: as §2

[12] = compound: T4, CANERTINIB; test: as above; conditions: exposure time: 5 days
Method in brief: as §2

[13] = compound: T5, TIOGUANINE; test: as above; conditions: exposure time: 5 days
Method in brief: as §2

[14] = compound: T6, SNX-5422; test: as above; conditions: exposure time: 5 days
Method in brief: as §2

[15] = compound: CNC(=O)c1ccc(N2C(=S)N(c3ccc(C#N)c(C(F)(F)F)c3)C(=O)C2(C)C)cc1F [MDV3100]; test: as above; conditions: exposure time: 5 days
Method in brief: as §2

HU09 BONE
area under dose-response curve [1]: 2.37
area under dose-response curve [2]: 0.614
area under dose-response curve [3]: 2.19
area under dose-response curve [4]: 3.05
area under dose-response curve [5]: 3.15
area under dose-response curve [6]: 3.42
area under dose-response curve [7]: 1.39
surviving fraction ([8]; 0.5 nM): 0.854 ± 0.062
surviving fraction ([8]; 1 nM): 0.812 ± 0.027
surviving fraction ([8]; 5 nM): 0.97 ± 0.061
surviving fraction ([8]; 10 nM): 0.882 ± 0.018
surviving fraction ([8]; 50 nM): 0.857 ± 0.021
surviving fraction ([8]; 100 nM): 0.537 ± 0.042
surviving fraction ([8]; 500 nM): 0.0813 ± 0.0049
surviving fraction ([8]; 1000 nM): 0.0557 ± 0.0035
surviving fraction ([9]; 0.5 nM): 1.03 ± 0.049
surviving fraction ([9]; 1 nM): 0.939 ± 0.14
surviving fraction ([9]; 5 nM): 0.066 ± 0.0044
surviving fraction ([9]; 10 nM): 0.0487 ± 0.0047
surviving fraction ([9]; 50 nM): 0.086 ± 0.033
surviving fraction ([9]; 100 nM): 0.076 ± 0.017
surviving fraction ([9]; 500 nM): 0.0617 ± 0.0081
surviving fraction ([9]; 1000 nM): 0.0403 ± 0.0032
surviving fraction ([10]; 0.5 nM): 0.977 ± 0.039
surviving fraction ([10]; 1 nM): 1.02 ± 0.062
surviving fraction ([10]; 5 nM): 1.02 ± 0.058
surviving fraction ([10]; 10 nM): 0.975 ± 0.015
surviving fraction ([10]; 50 nM): 0.6343 ± 0.0057
surviving fraction ([10]; 100 nM): 0.372 ± 0.033
surviving fraction ([10]; 500 nM): 0.073 ± 0.0061
surviving fraction ([10]; 1000 nM): 0.0617 ± 0.011
surviving fraction ([11]; 0.5 nM): 1.08 ± 0.085
surviving fraction ([11]; 1 nM): 1.02 ± 0.1
surviving fraction ([11]; 5 nM): 1.16 ± 0.074
surviving fraction ([11]; 10 nM): 1.14 ± 0.087
surviving fraction ([11]; 50 nM): 1.12 ± 0.067
surviving fraction ([11]; 100 nM): 1.06 ± 0.15
surviving fraction ([11]; 500 nM): 0.6 ± 0.049
surviving fraction ([11]; 1000 nM): 0.231 ± 0.012
surviving fraction ([12]; 0.5 nM): 0.807 ± 0.14
surviving fraction ([12]; 1 nM): 0.891 ± 0.066
surviving fraction ([12]; 5 nM): 0.977 ± 0.058
surviving fraction ([12]; 10 nM): 0.904 ± 0.079
surviving fraction ([12]; 50 nM): 1.02 ± 0.086
surviving fraction ([12]; 100 nM): 1.02 ± 0.081
surviving fraction ([12]; 500 nM): 0.766 ± 0.033
surviving fraction ([12]; 1000 nM): 0.478 ± 0.027
surviving fraction ([13]; 0.5 nM): 0.964 ± 0.059
surviving fraction ([13]; 1 nM): 1.05 ± 0.071
surviving fraction ([13]; 5 nM): 1.05 ± 0.041
surviving fraction ([13]; 10 nM): 1.1 ± 0.074
surviving fraction ([13]; 50 nM): 1.04 ± 0.062
surviving fraction ([13]; 100 nM): 1.09 ± 0.089
surviving fraction ([13]; 500 nM): 1.06 ± 0.015
surviving fraction ([13]; 1000 nM): 0.927 ± 0.11
surviving fraction ([14]; 0.5 nM): 1.02 ± 0.032
surviving fraction ([14]; 1 nM): 0.991 ± 0.095
surviving fraction ([14]; 5 nM): 1.03 ± 0.15
surviving fraction ([14]; 10 nM): 0.701 ± 0.017
surviving fraction ([14]; 50 nM): 0.0323 ± 0.0029
surviving fraction ([14]; 100 nM): 0.023 ± 0.0017
surviving fraction ([14]; 500 nM): 0.0257 ± 0.0021
surviving fraction ([14]; 1000 nM): 0.03 ± 0.002
surviving fraction ([15]; 0.5 nM): 0.984 ± 0.077
surviving fraction ([15]; 1 nM): 1.03 ± 0.11
surviving fraction ([15]; 5 nM): 1.05 ± 0.071
surviving fraction ([15]; 10 nM): 1.12 ± 0.18
surviving fraction ([15]; 50 nM): 1 ± 0.055
surviving fraction ([15]; 100 nM): 1.04 ± 0.057
surviving fraction ([15]; 500 nM): 0.952 ± 0.053
surviving fraction ([15]; 1000 nM): 0.954 ± 0.018
